Measured values published in PubChem BioAssay AID1919016 (Molecular Pharmacology Branch, DTP, NCI, 2023).
Values joined by “and” are separate entries in the source; they are usually repeats but may differ in a detail not shown here. Equal entries are not always repeated. Blank lines part the entries; values can stand above or below the molecule they belong to.

Test system: NCI-H196 complex spheroid growth, percent test/control
Assay: Anticancer human tumor NCI-H196 cell line growth inhibition [AhR];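 further: seven days of drug exposure starting three days after plating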;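 on viability, T/C: 100% = DMSO vehicle control wells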
Conditions: for viability, T/C: stronger effect = lower value
Procedure, shortened: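 Agents were dosed in half-log steps down from roughly clinical Cmax, or from 10 microM where Cmax was unknown, alone and with AhR antagonists. Read-out: percent test/control growth of tumor spheroids containing HUVEC and MSC stromal cells.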

[1] = curve of first compound, second compound 0.1 µM
[2] = curve of first compound, second compound 0.316 µM
[3] = curve of first compound, second compound 1 µM
[4] = curve of first compound, second compound 3.16 µM
[5] = curve of first compound, second compound 10 µM
[6] = second compound 0.1 µM, first compound 0.000949 µM
[7] = second compound 0.1 µM, first compound 0.003 µM
[8] = second compound 0.1 µM, first compound 0.00949 µM
[9] = second compound 0.1 µM, first compound 0.03 µM
[10] = second compound 0.1 µM, first compound 0.0949 µM
[11] = second compound 0.1 µM, first compound 0.3 µM
[12] = second compound 0.316 µM, first compound 0.000949 µM
[13] = second compound 0.316 µM, first compound 0.003 µM
[14] = second compound 0.316 µM, first compound 0.00949 µM
[15] = second compound 0.316 µM, first compound 0.03 µM
[16] = second compound 0.316 µM, first compound 0.0949 µM
[17] = second compound 0.316 µM, first compound 0.3 µM
[18] = second compound 1 µM, first compound 0.000949 µM
[19] = second compound 1 µM, first compound 0.003 µM
[20] = second compound 1 µM, first compound 0.00949 µM
[21] = second compound 1 µM, first compound 0.03 µM
[22] = second compound 1 µM, first compound 0.0949 µM
[23] = second compound 1 µM, first compound 0.3 µM
[24] = second compound 3.16 µM, first compound 0.000949 µM
[25] = second compound 3.16 µM, first compound 0.003 µM
[26] = second compound 3.16 µM, first compound 0.00949 µM
[27] = second compound 3.16 µM, first compound 0.03 µM
[28] = second compound 3.16 µM, first compound 0.0949 µM
[29] = second compound 3.16 µM, first compound 0.3 µM
[30] = second compound 10 µM, first compound 0.000949 µM
[31] = second compound 10 µM, first compound 0.003 µM
[32] = second compound 10 µM, first compound 0.00949 µM
[33] = second compound 10 µM, first compound 0.03 µM
[34] = second compound 10 µM, first compound 0.0949 µM
[35] = second compound 10 µM, first compound 0.3 µM

IC50 [1]: 1300 nM
IC50 [2]: 1360 nM
IC50 [3]: 1120 nM
IC50 [4]: 1290 nM
IC50 [5]: 1380 nM
Compound: O=C(C=Cc1cccc(S(=O)(=O)Nc2ccccc2)c1)NO + Cc1cncc(-c2nc(NCCc3c[nH]c4ccccc34)c3ncn(C(C)C)c3n2)c1
viability, T/C (second compound 0.1 µM, first compound 0.0316 µM): 102%
viability, T/C (second compound 0.1 µM, first compound 0.1 µM): 102%
viability, T/C (second compound 0.1 µM, first compound 0.316 µM): 79.6%
viability, T/C (second compound 0.1 µM, first compound 1 µM): 63.6%
viability, T/C (second compound 0.1 µM, first compound 3.16 µM): 18.5%
viability, T/C (second compound 0.1 µM, first compound 10 µM): 0.47%
viability, T/C (second compound 0.316 µM, first compound 0.0316 µM): 103%
viability, T/C (second compound 0.316 µM, first compound 0.1 µM): 103%
viability, T/C (second compound 0.316 µM, first compound 0.316 µM): 96.2%
viability, T/C (second compound 0.316 µM, first compound 1 µM): 64.1%
viability, T/C (second compound 0.316 µM, first compound 3.16 µM): 12.2%
viability, T/C (second compound 0.316 µM, first compound 10 µM): 0.53%
viability, T/C (second compound 1 µM, first compound 0.0316 µM): 110%
viability, T/C (second compound 1 µM, first compound 0.1 µM): 115%
viability, T/C (second compound 1 µM, first compound 0.316 µM): 110%
viability, T/C (second compound 1 µM, first compound 1 µM): 51.9%
viability, T/C (second compound 1 µM, first compound 3.16 µM): 18.3%
viability, T/C (second compound 1 µM, first compound 10 µM): 1.69%
viability, T/C (second compound 3.16 µM, first compound 0.0316 µM): 114%
viability, T/C (second compound 3.16 µM, first compound 0.1 µM): 99.5%
viability, T/C (second compound 3.16 µM, first compound 0.316 µM): 96.7%
viability, T/C (second compound 3.16 µM, first compound 1 µM): 55.8%
viability, T/C (second compound 3.16 µM, first compound 3.16 µM): 21.7%
viability, T/C (second compound 3.16 µM, first compound 10 µM): 0.41%
viability, T/C (second compound 10 µM, first compound 0.0316 µM): 89.3%
viability, T/C (second compound 10 µM, first compound 0.1 µM): 87.8%
viability, T/C (second compound 10 µM, first compound 0.316 µM): 79.5%
viability, T/C (second compound 10 µM, first compound 1 µM): 64.3%
viability, T/C (second compound 10 µM, first compound 3.16 µM): 15.7%
viability, T/C (second compound 10 µM, first compound 10 µM): 0.74%

IC50 [1]: > 300 nM
IC50 [2]: > 300 nM
IC50 [3]: > 300 nM
IC50 [4]: > 300 nM
IC50 [5]: > 300 nM
Compound: CCc1c2c(nc3ccc(O)cc13)-c1cc3c(c(=O)n1C2)COC(=O)[C@]3(O)CC + Cc1ccccc1N=Nc1ccc(NC(=O)c2ccnn2C)c(C)c1
viability, T/C [6]: 97%
viability, T/C [7]: 101%
viability, T/C [8]: 103%
viability, T/C [9]: 95.3%
viability, T/C [10]: 93.3%
viability, T/C [11]: 81.2%
viability, T/C [12]: 96.3%
viability, T/C [13]: 103%
viability, T/C [14]: 106%
viability, T/C [15]: 89.7%
viability, T/C [16]: 89.2%
viability, T/C [17]: 85.2%
viability, T/C [18]: 89.8%
viability, T/C [19]: 106%
viability, T/C [20]: 93.8%
viability, T/C [21]: 100%
viability, T/C [22]: 99.2%
viability, T/C [23]: 70.7%
viability, T/C [24]: 89.4%
viability, T/C [25]: 91.3%
viability, T/C [26]: 103%
viability, T/C [27]: 88.9%
viability, T/C [28]: 82.7%
viability, T/C [29]: 74.3%
viability, T/C [30]: 89%
viability, T/C [31]: 108%
viability, T/C [32]: 93.3%
viability, T/C [33]: 94.9%
viability, T/C [34]: 96%
viability, T/C [35]: 76.1%

IC50 [1]: 7.64 nM
IC50 [2]: 8.07 nM
IC50 [3]: 8.7 nM
IC50 [4]: 10.6 nM
IC50 [5]: 8.75 nM
Compound: CC(C)CC(NC(=O)C(Cc1ccccc1)NC(=O)c1cnccn1)B(O)O (configuration not stated) + CC(CO)NC(=O)c1cc(-c2ccc(Cl)cc2)nn(-c2cnn(C)c2)c1=O
viability, T/C [6]: 108%
viability, T/C [7]: 106%
viability, T/C [8]: 37%
viability, T/C [9]: 3.54%
viability, T/C [10]: 2.43%
viability, T/C [11]: 2.49%
viability, T/C [12]: 106%
viability, T/C [13]: 101%
viability, T/C [14]: 41.8%
viability, T/C [15]: 2.17%
viability, T/C [16]: 2.62%
viability, T/C [17]: 1.45%
viability, T/C [18]: 109%
viability, T/C [19]: 103%
viability, T/C [20]: 45.8%
viability, T/C [21]: 3.07%
viability, T/C [22]: 1.88%
viability, T/C [23]: 2.1%
viability, T/C [24]: 118%
viability, T/C [25]: 113%
viability, T/C [26]: 54.9%
viability, T/C [27]: 3.25%
viability, T/C [28]: 1.7%
viability, T/C [29]: 1.74%
viability, T/C [30]: 112%
viability, T/C [31]: 116%
viability, T/C [32]: 45.1%
viability, T/C [33]: 2.87%
viability, T/C [34]: 2.23%
viability, T/C [35]: 2.03%

IC50 (curve of compound): > 10000 nM
Compound: CC(C)c1c(-c2ccccc2)nc2c(C#N)c[nH]n2c1=O
viability, T/C (compound 0.0316 µM): 97.3% and 97% and 111%
viability, T/C (compound 0.1 µM): 104% and 102% and 106%
viability, T/C (compound 0.316 µM): 109% and 92.1% and 112%
viability, T/C (compound 1 µM): 102% (2×) and 101%
viability, T/C (compound 3.16 µM): 101% and 102% and 110%
viability, T/C (compound 10 µM): 103% and 97.7% and 96.4%
